# According to patent US6133294A (priority 1999, dated 2000):
# What was measured:
# Format in all cases: in vivo
# Puccinia recondita = test: Brown rust (Puccinia recondita--PUCCRT); conditions: wheat (cultivar Monon), 100 ppm spray to run off, inoculated after 24 hours; for pest or weed control at 100 ppm: Puccinia recondita, 1DP, read-out: control of plant disease, PUCCRT 1DP
# Method: (§1) Compound Formulation: Compound formulation was accomplished by dissolving technical materials in acetone, with serial dilutions then made in acetone to obtain desired rates. Final treatment volumes were obtained by adding nine volumes 0.05% aqueous Tween-20 or Triton X-100, depending upon the pathogen.
# (§2) Brown rust (Puccinia recondita--PUCCRT): Wheat (cultivar Monon) was grown from seed in a soilless peat-based potting mixture (Metromix) until the seedlings were 1-2). These plants were then sprayed to run off with the test compound at a rate of 100 ppm. After 24 hours the test plants were inoculated with an aqueous spore suspension of Puccinia recondita. The plants were then transferred to the greenhouse until disease developed on the untreated control plants.
# (§3) the following table presents the activity of typical compounds of the present invention when evaluated in these experiments. The effectiveness of the test compounds in controlling disease was rated using the following scale: […]
# Phytophthora infestans = test: whole plant or invertebrate; conditions: for control of plant disease, PHYTIN 1DP: tomatoes (cultivar Rutgers), 100 ppm spray to run off, inoculated after 24 hours; for pest or weed control at 100 ppm: Phytophthora infestans, 24 h, read-out: control of plant disease, PHYTIN 1DP
# Erysiphe graminis = test: Powdery Mildew of Wheat (Erysiphe graminis--ERYSGT); conditions: wheat (cultivar Monon), 100 ppm spray to run off, inoculated after 24 hours; for pest or weed control at 100 ppm: Blumeria graminis, 1DP, read-out: control of plant disease, ERYSGT 1DP
# Method: as §1
# Powdery Mildew of Wheat (Erysiphe graminis--ERYSGT): Wheat (cultivar Monon) was grown in a soilless peat-based potting mixture (Metromix) until the seedlings were 1-2 leaf (BBCH 12). These plants were then sprayed to run off with the test compound at a rate of 100 ppm. After 24 hours the test plants were inoculated with Erysiphe graminis by dusting spores from stock plants onto the test plants. The plants were then transferred to the greenhouse until disease developed on the untreated control plants.
# as §3
# Leptosphaeria nodorum = test: Glume blotch of wheat (Leptosphaeria nodorum--LEPTNO); conditions: wheat (cultivar Monon), 100 ppm spray to run off, inoculated after 24 hours; for pest or weed control at 100 ppm: Parastagonospora nodorum, 1DP, read-out: control of plant disease, LEPTNO 1DP
# Method: as §1
# as §2, with “Glume blotch of wheat (Leptosphaeria nodorum--LEPTNO):” for “Brown rust (Puccinia recondita--PUCCRT):”, “1-2 leaf (BBCH 12).” for “1-2).”, “Leptosphaeria nodorum.” for “Puccinia recondita.”
# as §3
SMILES,"control of plant disease, PUCCRT 1DP (Puccinia recondita)","control of plant disease, PHYTIN 1DP (Phytophthora infestans)","control of plant disease, ERYSGT 1DP (Erysiphe graminis)","control of plant disease, LEPTNO 1DP (Leptosphaeria nodorum)",pest or weed control at 100 ppm (Puccinia recondita),pest or weed control at 100 ppm (Phytophthora infestans),pest or weed control at 100 ppm (Erysiphe graminis),pest or weed control at 100 ppm (Leptosphaeria nodorum)
CNC(=O)C(=NOC)c1cccc(F)c1COc1cccc(-c2nc(C(C)(C)C)no2)n1 [Example 88],++ (75-100% control of plant disease),++ (75-100% control of plant disease),++ (75-100% control of plant disease),++ (75-100% control of plant disease),,,,
"CNC(=O)C(=NOC)c1ccccc1COc1ncc(-c2nc(C(C)(C)C)no2)cc1Cl [Example 47, Benzeneacetamide, 2-[[[3-chloro-5-(3-t-butyl-1,2,4-oxadiazol-5-yl)-2-pyridinyl]oxy]methyl]-α-(methoxyimino)-N-methyl-]",,,,,75 to 100%,0 to 24%,75 to 100%,75 to 100%
"CNC(=O)C(=NOC)c1ccccc1COc1ncc(-c2nnc(C3CC3)o2)cc1Cl [Example 1, Benzeneacetamide, 2-[[[3-chloro-5-(5-cyclopropyl-1,3,4-oxadiazol-2-yl)-2-pyridinyl]oxy]methyl]-α-(methoxyimino)-N-methyl-]",,,,,75 to 100%,75 to 100%,0 to 24%,0 to 24%
CNC(=O)C(=NOC)c1ccccc1COc1ccc(-c2cc(-c3ccccc3)on2)cn1 [Example 44],,,,,,0 to 24%,,
CCc1noc(-c2cnc(OCc3ccccc3C(=NOC)C(=O)OC)c(Cl)c2)n1 [Example 101],,,,,75 to 100%,75 to 100%,75 to 100%,25 to 74%
CNC(=O)C(=NOC)c1ccccc1COc1ncc(-c2noc(C(C)C)n2)cc1Cl [Example 37],,,,,75 to 100%,0 to 24%,75 to 100%,75 to 100%
CNC(=O)C(=NOC)c1ccccc1COc1ncc(-c2nc(-c3ccccc3)no2)cc1Cl [Example 48],,,,,75 to 100%,75 to 100%,75 to 100%,25 to 74%
CNC(=O)C(=NOC)c1ccc(C)cc1COc1ncc(-c2noc(C(F)(F)F)n2)cc1Cl [Example 33],++ (75-100% control of plant disease),++ (75-100% control of plant disease),++ (75-100% control of plant disease),++ (75-100% control of plant disease),,,,
CNC(=O)C(=NOC)c1ccccc1COc1ncc(-c2nc(C(C)C)no2)cc1Cl [Example 59],,,,,75 to 100%,,75 to 100%,75 to 100%
CNC(=O)C(=NOC)c1cccc(C)c1COc1ncc(-c2noc(C(F)(F)F)n2)cc1Cl [Example 35],++ (75-100% control of plant disease),- (0-24% control of plant disease),++ (75-100% control of plant disease),++ (75-100% control of plant disease),,,,
CNC(=O)C(=NOC)c1ccccc1COc1ncc(-c2nc(CSc3ccccc3)no2)cc1Cl [Example 58],,,,,75 to 100%,,75 to 100%,75 to 100%
CCC=Cc1nc(-c2cnc(OCc3ccccc3C(=NOC)C(=O)NC)c(Cl)c2)no1 [Example 22],,,,,75 to 100%,0 to 24%,75 to 100%,75 to 100%
CNC(=O)C(=NOC)c1ccccc1COc1ncc(-c2nc(N3CCCCC3)no2)cc1Cl [Example 69],++ (75-100% control of plant disease),++ (75-100% control of plant disease),++ (75-100% control of plant disease),++ (75-100% control of plant disease),,,,
CNC(=O)C(=NOC)c1ccccc1COc1ncc(-c2nc(C(C)(C)C)no2)cc1C [Example 60],,,,,75 to 100%,,75 to 100%,75 to 100%
CCOc1cc(-c2cnc(OCc3ccccc3C(=NOC)C(=O)NC)c(Cl)c2)no1 [Example 40],,,,,75 to 100%,25 to 74%,75 to 100%,0 to 24%
CCc1cc(-c2cnc(OCc3ccccc3C(=NOC)C(=O)NC)c(Cl)c2)on1 [Example 76],,,,,75 to 100%,25 to 74%,75 to 100%,75 to 100%
CCc1nnc(-c2cnc(OCc3ccccc3C(=NOC)C(=O)NC)c(Cl)c2)o1 [Example 5],,,,,75 to 100%,75 to 100%,75 to 100%,75 to 100%
CNC(=O)C(=NOC)c1ccccc1COc1ncc(-c2nc(N(C)C)no2)cc1Cl [Example 64],,,,,75 to 100%,0 to 24%,75 to 100%,75 to 100%
CNC(=O)C(=NOC)c1ccccc1COc1ncc(-c2nnc(-c3ccccc3)o2)cc1Cl [Example 2],,,,,75 to 100%,75 to 100%,25 to 74%,75 to 100%
CCc1noc(-c2cnc(OCc3ccccc3C(=COC)C(=O)OC)c(Cl)c2)n1 [Example 99],,,,,75 to 100%,25 to 74%,75 to 100%,75 to 100%
CNC(=O)C(=NOC)c1ccccc1COc1ncc(-c2nnc(C(C)(C)C)o2)cc1Cl [Example 4],,,,,75 to 100%,0 to 24%,75 to 100%,75 to 100%
CNC(=O)C(=NOC)c1ccccc1COc1ccc(-c2cc(C(C)(C)C)on2)cn1 [Example 43],,,,,75 to 100%,75 to 100%,75 to 100%,75 to 100%
CON=C(C(=O)OC)c1ccccc1COc1ncc(-c2noc(C(C)(C)C)n2)cc1Cl [Example 97],,,,,75 to 100%,75 to 100%,75 to 100%,75 to 100%
CNC(=O)C(=NOC)c1ccccc1COc1ncc(-c2nc(CSC)no2)cc1Cl [Example 62],,,,,75 to 100%,,75 to 100%,75 to 100%
CNC(=O)C(=NOC)c1ccccc1COc1ncc(-c2nc(COC)no2)cc1Cl [Example 61],,,,,75 to 100%,,75 to 100%,0 to 24%
CCc1noc(-c2ccc(OCc3ccccc3C(=NOC)C(=O)NC)nc2)n1 [Example 63],,,,,75 to 100%,,75 to 100%,25 to 74%
CNC(=O)C(=NOC)c1ccccc1COc1ncc(-c2nc(COc3ccccc3)no2)cc1Cl [Example 57],,,,,75 to 100%,,75 to 100%,25 to 74%
CNC(=O)C(=NOC)c1ccccc1COc1ccc(-c2cc(C)on2)cn1 [Example 45],,,,,,25 to 74%,,
CNC(=O)C(=NOC)c1ccccc1COc1ncc(-c2cc(C)no2)cc1Cl [Example 79],,,,,,0 to 24%,,
CCc1cc(-c2ccc(OCc3ccccc3C(=NOC)C(=O)NC)nc2)on1 [Example 80],,,,,,0 to 24%,,
